The record followed here is patent EP4121415B1, “INHIBITORS OF CYTOKININ OXIDASE DERIVED FROM 1-[2-(HYDROXYALKYL)PHENYL]-3-YLUREA, USE THEREOF AND PREPARATIONS CONTAINING THESE DERIVATIVES” (Univerzita Palackého v Olomouci, priority 2020, dated 2021).

Read-outs that look alike come from different tables or passages of the source.

Test [1] has as its target T1, maize enzyme cytokinin oxidase/dehydrogenase 1 (ZmCKX1) (Zea mays, UniProt Q9T0N8).
T1 construct: made in house; host or cells: Yarrowia lipolytica
The test can be described thus: ZmCKX1 inhibition, PMS/MTT assay. The test is classed as biochemical. The protocol: The IC50 (concentration of a substance that causes 50% inhibition of the enzyme activity) was measured by PMS/MTT assay [phenazine methosulphate/3-(4,5-dimethylthiazol-2-yl)-2,5-diphenyltetrazolium bromide]. The assay was performed in 96-well microtiter plates. Each well contained a reaction mixture with a final concentration of: 0.1 M KH2PO4, pH 7.4, 1 mM MTT, 0.2 mM PMS, tested substance in a concentration range of 0.1 nM - 1 µM and 10 µM N^6-isopentenyladenine (iP) as a substrate. To this reaction mixture 100 µL of medium containing the active enzyme ZmCKX1 was added. The enzyme was produced by the yeast Yarrowia lipolytica and isolated according to the protocol (Kopečný D. et al., 2005, […] 87:1011-1022). The plates were incubated for 30 min at 37 °C and the enzymatic reaction was stopped by the addition of 25 µL of 35% acetic acid. Then, the absorbance at 578 nm was measured on a spectrophotometer, and the absorbance of the sample without the substrate was substracted as a reference value. The IC50 value was determined from the concentration-dependent curves in GraphPad Prism software. The values shown in Table 1 are the average of at least two measurements each performed in three repetitions. […] This also applies to 3,5-DCl-Ph-U derivatives.
A general note: Tetrazolium assays rely on reduction of a dye to a coloured formazan, in cell work by metabolically active cells.

Test [2] has as its system segments of wheat leaves (Triticum aestivum cv. Hereward). The test can be described thus: wheat leaf senescence assay performed in the dark (chlorophyll retention in detached leaf segments). The note with it: 10 micromolar, 96 hours in the dark at 25 °C, compared to yellow control (0,2% DMSO); for activation at 10 µM: Triticum aestivum, foliar, read-out: (% of chlorophyll above control). The test is classed as in vivo. The protocol: Seeds of winter wheat (Triticum aestivum cv. Hereward) was washed under running water for 4 hours and then sown in vermiculite saturated with Knop's nutrient solution. The trays with seeds were placed in an air-conditioned growth chamber with a 16/8 hour light regime (light intensity 50 µmol.m^-2.s^-1) and a temperature of 15 °C. After 7 days, the seedlings had developed the first […] and the second leaf began to grow. Top sections approximately 4 cm long were excised from the first leaves of 4 plants and their combined weight was adjusted to exactly 100 mg. The basal ends of these 4 leaf segments were placed in the wells of microtiter polystyrene plates containing solution (150 µL) of the tested derivative. The plates were placed in a plastic box with filter paper, which was saturated with water (to maintain the maximum humidity). After 96 hours of incubation in the dark at 25 °C, the leaf segments were removed and the chlorophyll was extracted to 5 mL of 80% ethanol by heating the leaf segments in ethanol at 80 °C for 40 min. The sample volume was then adjusted to 5 mL by adding 80% ethanol. The absorbance of the extracts was measured at 665 nm. Chlorophyll extracts from leaf segments incubated in deionized water (so-called yellow control) were also measured as controls. Freshly cut leaves (100 mg) were used as a green control, from which chlorophyll was extracted and measured in the same manner. The calculated values are the average of 5 replicates and the whole experiment was repeated two times. The tested compounds were dissolved in dimethyl sulfoxide (DMSO) to a concentration 10^-2 M. This stock solution was further diluted with water to a concentration of 10 micromolar. At this concentration, the substances were tested.

Test [3] deals with winter wheat (Triticum aestivum cv. Hereward). The test can be described thus: salt-induced senescence of wheat plants. In kind it is in vivo. The note with it: 100 nM aqueous solution, 75 mM NaCl seven days after planting, assessed 30 days after planting. The protocol: To investigate the effects of compounds 64 and 66 on salt-induced senescence, seeds of winter wheat (Triticum aestivum cv. Hereward) were washed under running water for 4 hours and then sown on perlite soaked with water (control) or 100 nM aqueous solution of compounds 64 or 66. Trays with seeds were placed in a growth chamber at 25 °C for 16/8 h light/dark at an intensity of 50 µmol.m^-2.s^-1. Seven days after planting, the plants were treated with 75 mM NaCl solution. The plants were allowed to grow and the plant damage was assessed 30 days after planting.
While untreated plants have the first leaves dead and the second leaves yellow, plants treated with CKX inhibitors have the first leaves yellowing and the second leaves green. […] This in vivo experiment is evidence that CKX inhibitors prolong the photosynthetic activity of wheat plants that have been exposed to environmental stress.

Setting [4] is: 10 µM N6-isopentenyladenine (iP) as substrate, pH 7.4, 30 min at 37 °C, average of at least two measurements, read-out: IC50 (µM) ZmCKX1.

T1 sequence (Q9T0N8 19-534): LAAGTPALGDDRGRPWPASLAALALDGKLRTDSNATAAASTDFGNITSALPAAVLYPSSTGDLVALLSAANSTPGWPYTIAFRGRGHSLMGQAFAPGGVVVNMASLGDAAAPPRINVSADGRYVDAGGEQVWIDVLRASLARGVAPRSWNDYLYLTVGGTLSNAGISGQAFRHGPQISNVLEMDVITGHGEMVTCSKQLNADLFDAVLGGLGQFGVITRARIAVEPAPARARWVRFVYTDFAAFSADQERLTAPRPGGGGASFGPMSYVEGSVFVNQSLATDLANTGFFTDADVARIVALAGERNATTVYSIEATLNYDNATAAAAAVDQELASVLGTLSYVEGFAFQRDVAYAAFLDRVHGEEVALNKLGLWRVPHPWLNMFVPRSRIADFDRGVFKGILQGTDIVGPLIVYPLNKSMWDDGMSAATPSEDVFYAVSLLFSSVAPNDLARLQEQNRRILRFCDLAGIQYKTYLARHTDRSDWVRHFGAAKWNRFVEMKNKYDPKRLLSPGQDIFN

As a reminder, the IC50 is the midpoint of a concentration-inhibition curve. Turning to `O=C(Nc1cc(Cl)nc(Cl)c1)Nc1cc(Cl)ccc1CO` [Compound 6, 1-(5-chloro-2-hydroxymethylphenyl)-3-(2,6-dichloropyridin-4-yl)urea], the IC50 in test [1] (setting [4]) was found to be 0.1 µM. The activation at 10 µM in test [2] stood at 29%.

For the compound `COc1cc(NCCN)cc(NC(=O)Nc2cc(Cl)ccc2CCO)c1` [Compound 59, 1-[5-chloro-2-(2-hydroxyethyl)phenyl]-3-[3-(2-aminoethylamino)-5-methoxyphenyl]urea], in test [1] (setting [4]), the IC50 came out at 0.008 µM. In addition, the activation at 10 µM in test [2] amounted to 48%.

For `O=C(Nc1cccc(OC(F)(F)F)c1)Nc1cc(Cl)ccc1CCO` [Compound 62, 1-[5-chloro-2-(2-hydroxyethyl)phenyl]-3-(3-trifluoromethoxyphenyl)urea], in test [1] (setting [4]), the 50% inhibitory concentration (IC50) stood at 0.021 µM. Moreover, in test [2], the activation at 10 µM was found to be 39%.

`COc1cc(Br)cc(NC(=O)Nc2ccccc2CO)c1` [Compound 22, 1-(3-bromo-5-methoxyphenyl)-3-(2-hydroxymethylphenyl)urea] came in with an IC50 in test [1] of 0.26 µM. In addition, the “(% of chlorophyll above control)” value in test [2] amounted to 25%.

Regarding `COc1cccc(NC(=O)Nc2cc(Cl)ccc2CCO)c1` [Compound 52, 1-[5-chloro-2-(2-hydroxyethyl)phenyl]-3-(3-methoxyphenyl)urea], the IC50 in test [1] (setting [4]) was 0.066 µM. The activation at 10 µM in test [2] amounted to 37%.

Consider `COc1cc(NCCN)cc(NC(=O)Nc2cc(Cl)ccc2CO)c1` [Compound 25, 1-(5-chloro-2-hydroxymethylphenyl)-3-[3-(2-aminoethylamino)-5-methoxyphenyl]urea], for which, in test [1] (setting [4]), the IC50 was 0.024 µM. In test [2], the activation at 10 µM came out at 45%.

Regarding `NCCNc1cc(NC(=O)Nc2cc(Cl)ccc2CO)cc(OC(F)(F)F)c1` [Compound 40, 1-(5-chloro-2-hydroxymethylphenyl)-3-[3-(2-aminoethylamino)-5-trifluoromethoxyphenyl]urea], the IC50 in test [1] (setting [4]) was found to be 0.01 µM. Besides, the activation at 10 µM in test [2] was 39%.

As to `O=C(Nc1cc(Cl)cc(OC(F)(F)F)c1)Nc1ccccc1CCO` [Compound 64, 1-(3-Chloro-5-trifluoromethoxyphenyl)-3-[2-(2-hydroxyethyl)phenyl]urea], half-maximal inhibition in test [1] (IC50) required 0.058 µM. Also, in test [3], the “plant damage and senescence under salinity stress” value is “reduced the damage and delayed the senescence”; the “total chlorophyll content in whole plants: untreated salinity-stressed plants have less chlorophyll than treated stressed plants” value stood at 27%.

`COc1cc(NC(=O)Nc2cc(Br)ccc2CO)ccn1` [Compound 8, 1-(5-bromo-2-hydroxy-methylphenyl)-3-(2-methoxypyridin-4-yl)urea]: the IC50 in test [1] stood at 0.13 µM. The “(% of chlorophyll above control)” value in test [2] was determined as 25%.

As for `O=C(Nc1cc(Br)cc(OC(F)(F)F)c1)Nc1ccccc1CCO` [Compound 65, 1-(3-Bromo-5-trifluoromethoxyphenyl)-3-[2-(2-hydroxyethyl)phenyl]urea], in test [1], the midpoint of inhibition, the IC50, lay at 0.035 µM. Further, the “(% of chlorophyll above control)” value in test [2] is listed as 30%.

As for `COc1cccc(NC(=O)Nc2cc(Br)ccc2CCO)c1` [Compound 53], in test [1] (setting [4]), the IC50 stood at 0.074 µM. Moreover, the “(% of chlorophyll above control)” value in test [2] is recorded as 35%.

Turning to `COc1cc(NC(=O)Nc2cc(Cl)cc(Cl)c2CCO)ccn1` [Compound 16, 1-[3,5-dichloro-2-(2-hydroxyethyl)phenyl]-3-(2-methoxypyridin-4-yl)urea], in test [1] (setting [4]), the IC50 turned out to be 0.081 µM. Besides, in test [2], the activation at 10 µM worked out at 35%.

Take `O=C(Nc1cccc(SC(F)(F)F)c1)Nc1cc(F)ccc1CO` [Compound 42, 1-(5-fluoro-2-hydroxymethylphenyl)-3-(3-trifluoromethylsulphanylphenyl)urea]: the IC50 in test [1] (setting [4]) amounted to 0.08 µM. Moreover, the activation at 10 µM in test [2] was 25%.

Take `CSc1cccc(NC(=O)Nc2cc(Cl)ccc2CCO)c1` [Compound 60, 1-[5-chloro-2-(2-hydroxyethyl)phenyl]-3-(3-methylsulphanylphenyl)urea]: in test [1] (setting [4]), the IC50 was 0.035 µM. The activation at 10 µM in test [2] stood at 36%.

On to `O=C(Nc1ccnc(F)c1)Nc1cc(Cl)ccc1CO` [Compound 2, 1-(5-chloro-2-hydroxymethylphenyl)-3-(2-fluoropyridin-4-yl)urea], for which, in test [1] (setting [4]), the IC50 amounted to 0.27 µM. Further, the activation at 10 µM in test [2] came out at 23%.

With `O=C(Nc1cc(F)nc(F)c1)Nc1cc(Cl)ccc1CCO` [Compound 11, 1-[5-chloro-2-(2-hydroxyethyl)phenyl]-3-(2,6-difluoropyridin-4-yl)urea], in test [1] (setting [4]), the IC50 stood at 0.095 µM. Also, the activation at 10 µM in test [2] turned out to be 31%.

In test [1], `O=C(Nc1ccccc1)Nc1ccnc(Cl)c1` [CPPU, 1-(2-chloropyridin-4-yl)-3phenylurea, reference compound] showed an IC50 of 20.5 µM. Also, in test [2], the activation at 10 µM was determined as 12%.

On to `COc1cccc(NC(=O)Nc2cc(F)ccc2CCO)c1` [Compound 51, 1-[5-fluoro-2-(2-hydroxyethyl)phenyl]-3-(3-methoxyphenyl)urea], for which the IC50 in test [1] (setting [4]) came out at 0.08 µM. Also, the activation at 10 µM in test [2] was 30%.

With `O=C(Nc1cccc(SC(F)(F)F)c1)Nc1ccccc1CCO` [Compound 68, 1-[2-(2-Hydroxyethyl)phenyl]-3-(3-trifluoromethylsulphanylphenyl)urea], the IC50 in test [1] (setting [4]) was 0.074 µM. In addition, in test [2], the activation at 10 µM came out at 34%.

In test [1], `CSc1cccc(NC(=O)Nc2cc(Br)ccc2CO)c1` [Compound 27, 1-(5-bromo-2-hydroxy-methylphenyl)-3-(3-methylsulphanylphenyl)urea] gave an IC50 of 0.17 µM. Also, the “(% of chlorophyll above control)” value in test [2] came out at 26%.

As to `O=C(Nc1cc(NCCO)cc(OC(F)(F)F)c1)Nc1ccccc1CCO` [Compound 66, 1-[3-(2-Hydroxyethylamino)-5-trifluoromethoxyphenyl]-3-[2-(2-hydroxyethyl)phenyl]urea], in test [1] (setting [4]), the 50% inhibitory concentration (IC50) came to 0.029 µM. The activation at 10 µM in test [2] is 36%. Besides, in test [3], the “plant damage and senescence under salinity stress” value is “reduced the damage and delayed the senescence”; the “total chlorophyll content in whole plants: untreated salinity-stressed plants have less chlorophyll than treated stressed plants” value came out at 27%.

In test [1], `O=C(Nc1cccc(OC(F)(F)F)c1)Nc1cc(Br)ccc1CO` [Compound 34, 1-(5-Bromo-2-hydroxymethylphenyl)-3-(3-trifluoromethoxyphenyl)urea] gave an IC50 of 0.1 µM. In test [2], the “(% of chlorophyll above control)” value was determined as 32%.

For `O=C(Nc1cccc(OC(F)(F)F)c1)Nc1cc(F)cc(F)c1CO` [Compound 35, 1-(3,5-Difluoro-2-hydroxymethylphenyl)-3-(3-trifluoromethoxyphenyl)urea], the IC50 in test [1] (setting [4]) stood at 0.085 µM.
